Molecular target: T1, recombinant human renin (Homo sapiens, UniProt P00797)
T1 sequence (P00797 67-406): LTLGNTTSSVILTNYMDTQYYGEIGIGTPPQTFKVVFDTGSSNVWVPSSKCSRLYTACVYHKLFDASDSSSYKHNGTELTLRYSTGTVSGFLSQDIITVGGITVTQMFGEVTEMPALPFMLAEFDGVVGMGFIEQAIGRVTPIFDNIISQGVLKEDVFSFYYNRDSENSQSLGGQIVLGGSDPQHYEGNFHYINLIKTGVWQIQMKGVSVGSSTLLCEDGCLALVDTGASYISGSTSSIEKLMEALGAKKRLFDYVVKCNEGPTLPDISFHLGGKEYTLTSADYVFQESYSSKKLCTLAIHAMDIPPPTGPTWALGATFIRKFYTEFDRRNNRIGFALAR
Experiment: Primary renin inhibition assay: IC50 in buffer, 384 well MTP (AngI quantified by EIA)
Assay type: biochemical
Settings: human tetradecapeptide substrate, 37° C. for 3 h
Procedure: 1. Enzyme Immuno Assay (EIA) to Estimate AngI Accumulation and Renin Inhibition
1.1 Preparation of AngI-BSA Conjugate
1.3 mg (1 μmol) of AngI [1-10 (Bachem, H-1680)] and 17 mg (0.26 μmol) of BSA (Fluka, 05475) were dissolved in 4 mL of 0.1M phosphate buffer, pH 7.4, after which 2 mL of a 1:100 dilution of glutaraldehyde in H2O (Sigma G-5882) was added dropwise. The mixture was incubated overnight at 4° C., then dialyzed against 2 liters of 0.9% NaCl, twice for 4 h at rt, followed by dialysis against 2 liters of PBS 1× overnight at rt. The solution was then filtered with a Syringe filter, 0.45 μm (Nalgene, Cat. No. 194-2545). The conjugate can be stored in polypropylene tubes in 0.05% sodium azide at 4° C. for at least 12 months.
1.2 Preparation of BSA-AngI Coated MTP
Microtiter plates (MPT384, MaxiSorp™, Nunc) were incubated overnight at 4° C. with 80 μl of AngI (1-10)/BSA conjugate, diluted 1:100'000 in PBS 1× in a teflon beaker (exact dilution dependent on batch of conjugate), emptied, filled with 90 μl of blocking solution [0.5% BSA (Sigma A-2153) in PBS 1×, 0.02% NaN3], and incubated for at least 2 h at rt, or overnight at 4° C. 96 well MTP (MaxiSorp™, Nunc) were coated with 200 μl conjugate and blocked with 250 μl blocking solution as above, except that the blocking solution contained 3% BSA. The plates can be stored in blocking solution at 4° C. for 1 month.
1.3 AngI-EIA in 384 Well MTP
The AngI (1-10)/BSA coated MTP were washed 3 times with wash buffer (PBS 1×, 0.01% Tween 20) and filled with 75 μl of primary antibody solution (anti-AngI antiserum, pre-diluted 1:10 in horse serum), diluted to a final concentration of 1:100'000 in assay buffer (PBS 1×, 1 mM EDTA, 0.1% BSA, pH 7.4). 5 μl of the renin reaction (or standards in assay buffer) (see below) were added to the primary antibody solution and the plates were incubated overnight at 4° C. After the incubation the plates were washed 3 times with wash buffer and incubated with secondary antibody [anti-rabbit IgG, linked to horseradish peroxidase (Amersham Bioscience, NA 934V), diluted 1:2'000 in wash buffer] for 2 h at rt. The plates were washed 3 times with wash buffer and then incubated for 1 h at rt with substrate solution [1.89 mM ABTS (2.2′-azino-di-(3-ethyl-benzthiazolinsulfonate)] (Roche Diagnostics, 102 946) and 2.36 mM H2O2 [30%, (Fluka, 95300] in substrate buffer (0.1M sodium acetate, 0.05M sodium dihydrogen phosphate, pH 4.2). The OD of the plate was read at 405 nm in a microplate reader (FLUOStar Optima from BMG). The production of AngI during the renin reaction was quantified by comparing the OD of the sample with the OD of a standard curve of AngI(1-10), measured in parallel.
2. Primary Renin Inhibition Assay: IC50 in Buffer, 384 Well MTP
The renin assay was adapted from an assay described before (Fischli W. et al., Hypertension, 1991, 18:22-31) and consists of two steps: in the first step, recombinant human renin is incubated with its substrate (commercial human tetradecapeptide renin substrate) to create the product Angiotensin I (AngI). In the second step, the accumulated AngI is measured by an immunological assay (enzyme immuno assay, EIA). The detailed description of this assay is found below. The EIA is very sensitive and well suited for renin activity measurements in buffer or in plasma. Due to the low concentration of renin used in this assay (2 fmol per assay tube or 10 pM) it is possible to measure inhibitor affinities in this primary assay down to low pM concentration.
Recombinant human renin (3 pg/μl) in assay buffer (PBS 1×, 1 mM EDTA, 0.1% BSA, pH 7.4), human tetradecapeptide (1-14) substrate (Bachem, M-1120) [5 μM in 10 mM HCl], hydroxyquinoline sulfate (Fluka, 55100) [30 mM in H2O] and assay buffer were premixed at 4° C. at a ratio of 100:30:10:145. 47.5 μl per well of this premix was transferred into polypropylene plates (MTP384, Nunc). […]

Molecule	IC50 [nM]
Mixture of (R)-2-aminomethyl-N-cyclopropyl-N-(2,3-dichloro-benzyl)-3-{2-[(R)-3-(2,6-dichloro-3,4-dimethyl-phenoxy)-pyrrolidin-1-yl]-thiazol-5-yl}-propionamide and (S)-2-aminomethyl-N-cyclopropyl-N-(2,3-dichloro-benzyl)-3-{2-[(R)-3-(2,6-dichloro-3,4-dimethyl-phenoxy)-pyrrolidin-1-yl]-thiazol-5-yl}-propionamide [Example 11]	17
COCCc1ccc(Cl)c(CN(C(=O)[C@@H](CN)Cc2ccc(N3CC[C@@H](Oc4c(Cl)cc(C)cc4Cl)C3)nc2)C2CC2)c1 [Example 20, (R)-2-Aminomethyl-N-[2-chloro-5-(2-methoxy-ethyl)-benzyl]-N-cyclopropyl-3-{6-[(R)-3-(2,6-dichloro-4-methyl-phenoxy)-pyrrolidin-1-yl]-pyridin-3-yl}-propionamide]	0.5
COCCc1ccc(Cl)c(CN(C(=O)[C@@H](CN)Cc2ccc(OCCOc3c(Cl)cc(C)cc3Cl)nc2)C2CC2)c1 [Example 18, (R)-2-Aminomethyl-N-[2-chloro-5-(2-methoxy-ethyl)-benzyl]-N-cyclopropyl-3-{6-[2-(2,6-dichloro-4-methyl-phenoxy)-ethoxy]-pyridin-3-yl}-propionamide]	0.2
Cc1cccc(CN(C(=O)C(CN)Cc2cnc(OCCOc3c(F)ccc(F)c3Cl)s2)C2CC2)c1C (racemic) [Example 2, (rac.)-3-Amino-2-{2-[2-(2-chloro-3,6-difluoro-phenoxy)-ethoxy]-thiazol-5-ylmethyl}-N-cyclopropyl-N-(2,3-dimethyl-benzyl)-propionamide]	7.8
COCCc1ccc(Cl)c(CN(C(=O)[C@@H](CN)Cc2ccc(N3CC[C@H](Oc4c(Cl)cc(C)cc4Cl)C3)nc2)C2CC2)c1 [Example 22, (R)-2-Aminomethyl-N-[2-chloro-5-(2-methoxy-ethyl)-benzyl]-N-cyclopropyl-3-{6-[(S)-3-(2,6-dichloro-4-methyl-phenoxy)-pyrrolidin-1-yl]-pyridin-3-yl}-propionamide]	0.3
Mixture of (R)-2-aminomethyl-3-{2-[(R)-3-(3-chloro-2,6-difluoro-phenoxy)-pyrrolidin-1-yl]-thiazol-5-yl}-N-cyclopropyl-N-(2,3-dichloro-benzyl)-propionamide and (S)-2-aminomethyl-3-{2-[(R)-3-(3-chloro-2,6-difluoro-phenoxy)-pyrrolidin-1-yl]-thiazol-5-yl}-N-cyclopropyl-N-(2,3-dichloro-benzyl)-propionamide [Example 14]	45

From patent US20090088457A1, “Primary Amines as Renin Inhibitors” (Actelion Pharmaceuticals, Ltd., priority 2006, published 2009)
